Data taken from patent publication US20260014144A1, “USE OF OV[…] PHARMACEUTICAL COMPOSITION THEREOF IN PREVENTION AND TREATMENT OF RENAL FIBROSIS” (ZHUJIANG HOSPITAL OF SOUTHERN MEDICAL UNIVERSITY, priority 2022, published 2026).
Where a name gives a salt, the structure may show the parent alone.

Key:
[1] = system: unilateral ureteral obstruction (UUO) RF animal model; experiment: Therapeutic effect of ACT004 in unilateral ureteral obstruction (UUO) renal fibrosis mouse model; format: in vivo; settings: UUO mice
Protocol: (§1) Sixty 8-week-old C57 mice (SPF grade) were supplied by the Laboratory Animal Center of Zhujiang Hospital, Southern Medical University, Guangzhou. Before the experiment, the animals were acclimated to the indoor environment for 7 days at a room temperature of 18-22° C. and a relative humidity of 65%. All mice had free access to water and were fed with regular feed (protein content: 3.14 mg/g).
Method for constructing UUO model: Under anesthesia with intraperitoneal injection of tribromoethanol, the surgical area for abdominal midline incision was shaved and disinfected. After making the abdominal midline incision, the left ureter was located, and the upper segment of the ureter was isolated. A complete ureteral obstruction was induced by double ligation using 4-0 silk sutures (UUO group). For mice in the sham group, the ureter was similarly exposed and isolated, but no ligation was performed. Layered suturing of the abdominal incision was performed, followed by disinfection with iodophor. Mice subjected to UUO surgery were randomly divided into the following 5 groups: a UUO group, a UUO+low-dose ACT004 (12.5 mg/kg·d) group, a UUO+medium-dose ACT004 (25 mg/kg·d) group, a UUO+high-dose ACT004 (50 mg/kg·d) group, and a sham group, with 6 mice in each group. Starting from day 4 after the surgery, intragastric administration was performed. The sham group and the UUO groups were given an equal volume of normal saline as a control treatment. On day 11 after the surgery, the left kidney tissues were collected.
(§2) According to the results of the preliminary experiment, the medium dose of ACT004 for mice was 25 mg/kg·d. Therefore, low-dose (12.5 mg/kg·d), medium-dose (25 mg/kg·d) and high-dose (50 mg/kg·d) groups were set. ACT004 was prepared into a solution using normal saline, and intragastrically administered once daily starting on day 4 after the surgery for a duration of 1 week. Mice in the sham, UUO and IRI groups were subjected to intragastric administration with an equal amount of normal saline for a duration of 1 week.
(§3) After 1 week of intragastric administration, kidney tissues were collected as follows: Anesthesia was conducted using single intraperitoneal injection of tribromoethanol at a concentration of 200 mg/kg. Blood was collected by enucleation, and serum was separated and stored at −20° C. or −70° C. An abdominal incision was made, and sterile gauze was used to move aside abdominal organs. Cold PBS was perfused through the heart until the organs turned white. Kidney tissues were then collected. The entire left kidney was weighed, then bisected along the median sagittal plane, and washed thoroughly with PBS, and the capsule was removed. The tissue was then fixed in 10% neutral formaldehyde buffer for subsequent pathological examination.
(§4) 2.2.1.4.1 Renal pathology: Masson staining was used to observe the renal pathological structures and collagen fiber deposition.
(§5) 2.2.1.4.2 Protein level detection: Ras GTPase superfamily member RALB, EMT-related index a-SMA, and fibrosis phenotype-related indexes Fibronectin and Collagen I.

[2] = system: ischemia-reperfusion injury (IRI) RF animal model; experiment: Therapeutic effect of ACT004 in ischemia-reperfusion injury (IRI) renal fibrosis mouse model; format: in vivo; settings: IRI mice
Protocol: as §1
Method for constructing IRI model: Mice were anesthetized intraperitoneally with tribromoethanol. An abdominal midline incision or dorsal incision was made. The left renal vein was isolated, while the renal artery was clamped using an arterial clip. The mice were placed on a constant-temperature pad at 37.5° C. for 30 min, and the incision was covered with PBS-moistened gauze. After 30 min, the arterial clip was released, and the abdomen was closed after the recovery of renal congestion was observed. Mice subjected to IRI surgery were randomly divided into the following 5 groups: an IRI group, an IRI+low-dose ACT004 (12.5 mg/kg·d) group, an IRI+medium-dose ACT004 (25 mg/kg·d) group, an IRI+high-dose ACT004 (50 mg/kg·d) group, and a sham group, with 6 mice in each group. Starting from day 4 after the surgery, intragastric administration was performed. The sham group and the IRI groups were given an equal volume of normal saline as a control treatment. On day 10 after the surgery, the right kidney was removed, and on day 11 day after the surgery, the left kidney tissues were collected.
as §2, §3, §4, §5

[3] = system: renal tubular epithelial cells (NRK); experiment: Effect of ACT004 on TGF-β1-induced EMT in renal tubular epithelial cells; format: cell-based, mouse
Protocol: The immortalized mouse-derived renal tubular epithelial cell line was provided by the Professor Nie Xiaoli's research team at the School of Traditional Chinese Medicine, Southern Medical University.
The addition of TGF-β1 was accompanied by the administration of different concentrations of ACT004 intervention (2.5 μM, 5 μM, and 10 μM). The cells were divided into the following 6 groups: a blank control group, a blank control+ACT004 (5 μM) group, a TGF-β1 model group, and groups for TGF-β1+ different concentrations of ACT004 intervention (2.5 μM, 5 μM, and 10 µM).
Protein level detection: Ras GTPase superfamily member RALB, EMT-related index α-SMA, and fibrosis phenotype-related indexes Fibronectin and Collagen I.

[4] = ACT004 12.5, 25, 50 mg/kg·d intragastric once daily from day 4 for 1 week, left kidney day 11, FIG. 1A
[5] = ACT004 intragastric 1 week, FIG. 1B
[6] = ACT004 intragastric 1 week, FIG. 1C, statistically significant (p<0.05)
[7] = ACT004 treatment groups, FIG. 3A

## C/C1=C\[C@H]2OC(=O)[C@H](CN3CCN(C)CC3)[C@@H]2CC[C@]2(C)O[C@H]2CCC2=C[C@H](C1)OC2=O [ACT004, (1aS,4Z,7S,9E,10aS,13S,13aS,15aS)-9,15a-dimethyl-13-((4-methylpiperazin-1-yl)methyl)-1a,2,3,8,10a,13,13a,14,15,15a-decahydro-5H-4,7-(metheno) furo [2,3-f]oxireno [2,3-j][1]oxacyclopentadecine-5, 12 (7H)-dione fumarate]
[1]; [4]
  Masson staining: renal interstitial expansion, extracellular matrix deposition, increased collagen fibers, inflammatory cell infiltration: significantly reduced
[1]; [5]
  Immunohistochemical staining: expression of Fibronectin, Collagen I, and α-SMA in kidney tissue: inhibitory effect
[1]; [6]
  Western blot: protein expression levels of Fibronectin, Collagen I, and α-SMA in kidney tissue: inhibit the progression of RF
[1]; ACT004 treatment groups, FIG. 2A
  Western blot: expression levels of p-Smad2, p-Smad3, p-Stat3, and p-NFκB in kidney tissues: significantly reduced
[1]; [7]
  Western blot: expression level of RALB in kidney tissues: significantly reduced
[2]; [4]
  Masson staining: renal interstitial expansion, extracellular matrix deposition, increased collagen fibers, inflammatory cell infiltration: significantly reduced
[2]; [5]
  Immunohistochemical staining: expression of Fibronectin, Collagen I, and α-SMA in kidney tissue: inhibitory effect
[2]; [6]
  Western blot: protein expression levels of Fibronectin, Collagen I, and α-SMA in kidney tissue: inhibit the progression of RF
[2]; ACT004 treatment groups, FIG. 2B
  Western blot: expression levels of p-Smad2, p-Smad3, p-Stat3, and p-NFκB in kidney tissues: significantly reduced
[2]; [7]
  Western blot: expression level of RALB in kidney tissues: significantly reduced
[3]; TGF-β1 10 ng/uL, 48 h, ACT004 2.5, 5, 10 μM, FIG. 1D, statistically significant (p<0.05)
  Western blot: protein expression levels of Fibronectin, Collagen I, and α-SMA in TGFβ1-induced renal tubular epithelial cells: inhibit the progression of RF
[3]; different concentrations of ACT004, TGF-β1 induction for 1 h, FIG. 2C, statistically significant
  Western blot: expression levels of p-Smad2, p-Smad3, p-Stat3, and p-NFκB in renal tubular epithelial cells induced by TGF-β1: reduced
